Experimental data as given in US20240325544A1, “CATIONIC LIPID FOR COVALENT MODIFICATION OF PEPTIDES” (PharmalN Corporation, priority 2023, published 2024).
Marks after values point to notes of the source that are not given here. Bridge positions count the residues as written; N and C are the ends. Square brackets hold non-standard residues; d marks the D form. Peptide text beside a SMILES is read from it. * marks the point of attachment. C18 diacid = O=C(O)CCCCCCCCCCCCCCCCC(=O)*; Palmitoyl = CCCCCCCCCCCCCCCC(=O)*; Dab = NCC[C@H](N)C(=O)O; Dap = NC[C@H](N)C(=O)O; AEEA = NCCOCCOCC(=O)O; GABA = NCCCC(=O)O

Experiments:
cGMP = test: Plasma cGMP after SC bolus of natriuretic peptides in CD-1 mice (pharmacodynamics, Table 3); type: in vivo; conditions: SC bolus 1.0 mg/kg (≤0.45 μmol/kg), baseline 10 +/−8 pmol/ml, n = 3-5
Outline: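 Peptides given SC in sterile water; retro-orbital blood at 2 and 6 h post-dose (two bleeds per mouse), K2EDTA plasma. Plasma cGMP by commercial immunoassay kit; ANP, BNP or CNP plasma levels by peptide-specific ELISA.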

[1] = Plasma concentration of respective natriuretic peptide by ELISA after SC bolus in CD-1 mice (pharmacokinetics, Table 3); conditions: male, CD-1, mouse, in vivo, sc, 1 mg/kg
Experimental: The test articles were formulated or dissolved in sterile water for injection on the same day of administration. […] Blood samples were collected via retro-orbital bleed at 2- and 6-hours post-injection, with two bleedings per animal at two different timepoints. The samples were collected in K2EDTA tubes, processed by centrifugation (2000×g; 15 m 4 eC within 30 minutes after collection), and the resulting plasma samples were stored at −80° C. Biochemical analysis: The plasma concentration of the respective natriuretic peptide was analyzed using commercially available ELISA kits from Phoenix Pharmaceuticals (Burlingame, CA): ANP ELISA (cat #EKE-005-06), BNP ELISA (cat #EKE-011-03), and CNP ELISA (cat #EKE-012-03). […] Plasma cGMP was analyzed using a commercially available kit from Abcam (ab133052, Waltham, MA).

[2] = tested on: E0771 breast cancer cells; test: Orthotopic mouse model of breast cancer using E0771 cells (FIG. 6); type: in vivo, mice; conditions: 0.3 mg/kg (0.1 μmol/kg) SC once daily, 5 days on, 2 days off, 3 cycles
Experimental: Error bars represent standard error of the mean. FIG. 6A) Tumor growth kinetics of 6-week-old female C57BL/6J mice (n=10 per group) that were inoculated with E0771 breast cancer cells (250,000 cells/mouse) in the mammary gland. Starting from Day 4 post-inoculation, cationic alkyl modified CNP derivatives (SEQ ID NO: 29, 30, and 31) were administered subcutaneously at a bolus dose of 0.3 mg/kg (0.1 μmol/kg) once daily for 5 days (5 days on, 2 days off) for 3 cycles; dose days indicated by gridlines. The control group, which received only buffer, was dosed in the same manner to establish the baseline tumor growth kinetics. […] Therefore, it can be concluded that the attachment of CNP is important for the observed anti-tumor activity. Statistical analysis was based on Dunnett's test performed by using GraphPad (n=10, 10, 10, and 10; Control, SEQ ID NO: 29, SEQ ID NO: 30, and SEQ ID NO: 31) **** P<0.0001 vs Control group.
Therefore, it can be concluded that the attachment of CNP is essential for anti-tumor activity. […] Animal care and treatment: Female C57BL/6J mice (6 weeks-old) were purchased from Kyudo (Saga, Japan) and maintained under a 12-hour light/12-hour dark cycle with free access to water and standard mouse diet (MF diet, Oriental Yeast Co., Ltd. Tokyo, Japan or PicoLab Rodent Diet 20, LabDiet Corp., St. Louis, Missouri). Implantation and drug administration: Mice were implanted with E0771 breast cancer cells (250,000 cells/mouse; Cosmo Bio Tokyo, Japan) in their left mammary gland and were randomized into groups of n=10. Starting from Day 4 post-inoculation, cationic alkyl modified CNP derivatives (SEQ ID NOs: 29, 30, and 31) were administered subcutaneously at a bolus dose of 0.3 mg/kg (0.1 μmol/kg; with a dose volume of 10 mL/kg) in sterile water for injection (Otsuka Pharmaceutical, Tokushima, Japan) once daily for 5 days (5 days on, 2 days off) for 3 cycles. The control group, which received only buffer, was dosed in the same manner to establish the baseline tumor growth kinetics. Tumor sizes were measured using calipers. Statistical analysis was based on Dunnett's test performed by using GraphPad (n=10, 10, 10, and 10; Control, SEQ ID NO: 29, SEQ ID NO: 30, and SEQ ID NO: 31) **** P<0.0001 vs Control group.

Sprague Dawley rats [3] = test: Dose-range finding of cationic alkyl modified CNP, subcutaneous bolus in rats (Table 2)
Experimental: Animal care and treatment: Male Sprague Dawley rats aged 8 to 10 weeks (Charles River, Hollister, CA) were housed in groups of two (n=3/group) in disposable polypropylene cages with rodent cob bedding at the PharmaIN animal facility. Animals had ad libitum access to food (LabDiet Pico Rodent #5053; Animal Specialties, Woodburn, OR) and water. Temperature (68-74° F.) and humidity (30-60%) were maintained within a controlled range, and a 12-hour light/dark cycle was used. […] Animals were monitored closely during the first 4 hours following injection, then hourly throughout the rest of the day for any signs of swelling or discoloration (dilatory side effect), lethargy (side effect), ataxia (ataxia is used as a marker of toxicity). Rats were allowed a 1-week wash-out period between bolus doses. Following final observations, animals were humanely euthanized through CO2 asphyxiation.

[4] = tested on: inflammatory cytokines (MCP1, IL-6, TNFα) in BALF; test: LPS ALI model: inflammatory cytokines in BALF by ELISA (Table 4); type: in vivo, mice; conditions: LPS 0.05 mg/kg IT; SEQ 0.3 mg/kg SC, Sivelestat 150 mg/kg IP; 24 hours
Experimental: Animal care and treatment: Male C57BL/6J mice (6 weeks-old) were purchased from Kyudo (Saga, Japan) and maintained under a 12-hour light/12-hour dark cycle with free access to water and standard mouse diet (MF diet, Oriental Yeast Co., Ltd. Tokyo, Japan). Drug administration: Mice were administered LPS (0.05 mg/kg IT; Sigma-Aldrich) followed by treatment with various test articles, including Sivelestat (150 mg/kg; Nipro, Osaka, Japan), an inhibitor of human neutrophil elastase, injected IP as a positive control, and cationic alkyl modified CNPs (SEQ ID NO: 31, 29, and 30; 0.3 mg/kg (0.1 μmol/kg) SC). The test articles were administered immediately after LPS injection. Additionally, a normal control (NC) group without LPS administration and a Control group receiving only LPS without any test article were included. After 24 hours, the mice were euthanized under isoflurane anesthesia and BALF was harvested. Biochemical analysis: ALI and ARDS are often characterized by increased levels of inflammatory cytokines, including Macrophage Chemoattractant Protein-1 (MCP1), Interleukin-6 (IL-6), and […] (TNFα), in BALF. Decreases in their concentration can indicate the resolution of ALI/ARDS. Concentration of each cytokine (MCP1, IL-6, and TNFα) was measured using an ELISA kit (R&D SYSTEMS, Minneapolis M N). […] Statistical analysis was based on Dunnett's test performed by using GraphPad. (n=5, 8, 8, 8, and 8; NC, Control, PC, SEQ ID NO: 31, SEQ ID NO: 29). *** P<0.001, ** P<0.01, * P<0.05 vs each corresponding Control group.

[5] = Clinically observable adverse effects of cationic alkyl moieties after subcutaneous bolus in rats (Table 1); type: in vivo, rat; conditions: male, Sprague-Dawley, rat, in vivo, sc, tested at 3.0, 5.0 or 10 μmol/kg, lethargy is considered maximum tolerated bolus dose, read-out: Lethargy* in n = 3
Experimental: (§1) Drug administration and observation: Each rat received a subcutaneous injection of a cationic alkyl modifier (SEQ ID NO: 1-22; listed in Table 1 below) in a buffer of sterile water adjusted to a pH between 4.5-5, with an initial bolus dose of 5.0 μmol/kg and an injection volume of 1.0 mL/kg. The bolus dose level was adjusted based on observations, and animals were monitored closely for lethargy, ataxia, swelling, or discoloration during the first 4 hours post-injection and hourly thereafter. As used herein, “ataxia” means a clinical sign observed as poor muscle control that causes clumsy voluntary movements. It may cause difficulty with mobility, coordination, and eye movements. As used herein, “lethargy” means a clinical sign observed as inability or unwillingness to resume normal activity characterized by exploring and alertness. Lethargic rats are easily observed by displaying little to no activity and/or unwillingness to explore around, half closed eyes, and hunched posture. As used herein, “swelling” means a clinical sign observed as the enlargement or engorgement of body parts with blood or fluid and is associated with visible redness (discoloration). If no swelling occurred, dose level was increased to 10 μmol/kg; if swelling was present, bolus dose level was decreased to 3.0 μmol/kg. A wash-out period of 1 week was allowed between bolus doses, and animals were humanely euthanized through CO2 asphyxiation after final observation.

Sprague Dawley rats [6] = test: as above; type: in vivo, rat; conditions: tested at 3.0, 5.0 or 10 μmol/kg; for Ataxia** in n = 3: ataxia is bolus dose limiting toxicity; for Swelling and/or Discoloration in n = 3: dose at which sign was seen
Experimental: as §1

Compound	MTD [5] [µmol/kg]	Ataxia** in n = 3 (Sprague Dawley rats [6]) [µmol/kg]	Swelling and/or Discoloration in n = 3 (Sprague Dawley rats [6]) [µmol/kg]	other results
CCCCCCCCCCCCCCCC(=O)N[C@@H](Cc1ccc(O)cc1)C(=O)N[C@@H](CCC(=O)O)C(=O)NCCOCCOCC(=O)NCCOCCOCC(=O)N[C@@H](CCN)C(=O)N[C@@H](CCN)C(=O)NCC(=O)N[C@@H](CC(C)C)C(=O)N[C@@H](CO)C(=O)N[C@@H](CCCCN)C(=O)NCC(=O)N[C@H]1CSSC[C@@H](C(=O)O)NC(=O)CNC(=O)[C@H](CC(C)C)NC(=O)CNC(=O)[C@H](CO)NC(=O)[C@H](CCC(N)=O)NC(=O)[C@H](CO)NC(=O)CNC(=O)[C@H]([C@@H](C)CC)NC(=O)[C@H](CCCNC(=N)N)NC(=O)[C@H](CC(=O)O)NC(=O)[C@H](CC(C)C)NC(=O)[C@H](CCCCN)NC(=O)[C@H](CC(C)C)NC(=O)CNC(=O)[C@H](Cc2ccccc2)NC1=O [SEQ ID NO: 30] (Palmitoyl-YE[AEEA][AEEA][Dab][Dab]GLSKGCFGLKLDRIGSQSGLGC-OH; disulfide 12-28; C-terminus assumed)	–	–	–	Plasma concentration of cGMP, 2 hr (cGMP; 2 hr): 217.30** pmol/mL; Plasma concentration of cGMP, 6 hr (cGMP; 6 hr): 83.85* pmol/mL; level at 2 h [1]: 12.6 ng/mL; level at 6 h [1]: 1.9 ng/mL; Tumor volume compared to the Control group [2]: significant decrease in tumor volume; Ataxia** in n = 3 (Sprague Dawley rats [3]; up to 10 mg/kg): >10 mg/kg; Lethargy* in n = 3 (Sprague Dawley rats [3]; up to 10 mg/kg): ≥10 mg/kg; Swelling and/or Discoloration in n = 3 (Sprague Dawley rats [3]; up to 10 mg/kg): >10 mg/kg; Ataxia** in n = 3 (Sprague Dawley rats [3]; value in parentheses): (3.3) μmol/kg; Lethargy* in n = 3 (Sprague Dawley rats [3]; value in parentheses): (3.3) μmol/kg; Swelling and/or Discoloration in n = 3 (Sprague Dawley rats [3]; value in parentheses): (3.3) μmol/kg
CC(C)(C)C(=O)Oc1ccc(S(=O)(=O)Nc2ccccc2C(=O)NCC(=O)O)cc1 [Sivelestat, reference compound]	–	–	–	IL-6 in BALF [4]: 69 % Of Control; MCP1 in BALF [4]: 63 % Of Control; TNFα in BALF [4]: 63 % Of Control
CCCCCCCCCCCCCCCC(=O)NCCOCCOCC(=O)NCCOCCOCC(=O)NCCOCCOCC(=O)N[C@@H](CN)C(=O)N[C@@H](CN)C(=O)O [SEQ ID NO: 14, CH3(CH2)14(C═O)-Aeea-Aeea-Aeea-Dap-Dap] ({Palmitoyl-AEEA-AEEA-AEEA}-[Dap]-[Dap]-OH; C-terminus assumed)	> 10	>10	>10	Tumor volume compared to the Control group [2]: did not show a significant reduction in tumor volume
CCCCCCCCCCCCCCCC(=O)NCCOCCOCC(=O)NCCOCCOCC(=O)N[C@@H](CCCCN)C(=O)N[C@@H](CCCCN)C(=O)O [SEQ ID NO: 5, CH3(CH2)14(C═O)-Aeea-Aeea-KK]	≥ 5	≥5	–	–
NC[C@H](NC(=O)[C@H](CN)NC(=O)COCCOCCNC(=O)COCCOCCNC(=O)COCCOCCNC(=O)CCCCCCCCCCCCCCCCC(=O)O)C(=O)O [SEQ ID NO: 20, (HOOC)(CH2)16(C═O)-Aeea-Aeea-Aeea-Dap-Dap] ({C18 diacid-AEEA-AEEA-AEEA}-[Dap]-[Dap]-OH; C-terminus assumed)	> 10	>10	>10	–
CCCCCCCCCCCCCCCC(=O)NCCOCCOCC(=O)NCCOCCOCC(=O)N[C@@H](CCCCN)C(=O)N[C@@H](CCCCN)C(=O)N[C@@H](CCCCN)C(=O)N[C@@H](CCCCN)C(=O)O [SEQ ID NO: 4, CH3(CH2)14(C═O)-Aeea-Aeea-KKKK] ({Palmitoyl-AEEA-AEEA}-KKKK-OH; C-terminus assumed)	≥ 3	≥3	≥3	–
CCCCCCCCCCCCCCCC(=O)NCCOCCOCC(=O)NCCOCCOCC(=O)NCCOCCOCC(=O)N[C@@H](CCN)C(=O)N[C@@H](CCN)C(=O)N[C@@H](CCN)C(=O)N[C@@H](CCN)C(=O)O [SEQ ID NO: 8, CH3(CH2)14(C═O)-Aeea-Aeea-Aeea-Dab-Dab-Dab-Dab] ({Palmitoyl-AEEA-AEEA-AEEA}-[Dab][Dab][Dab][Dab]-OH; C-terminus assumed)	≥ 3	>5	≥3	–
CCCCCCCCCCCCCCCC(=O)NCCCC(=O)NCCCC(=O)NCCCC(=O)N[C@@H](CCN)C(=O)N[C@@H](CCN)C(=O)O [SEQ ID NO: 12, CH3(CH2)14(C═O)-γAbu-γAbu-γAbu-Dab-Dab] ({Palmitoyl-GABA-GABA-GABA}-[Dab]-[Dab]-OH; C-terminus assumed)	> 10	>10	>10	–
CCCCCCCCCCCCCCCC(=O)NCCOCCOCC(=O)NCCOCCOCC(=O)NCCOCCOCC(=O)N[C@@H](CCN)C(=O)N[C@@H](CCN)C(=O)O [SEQ ID NO: 10, CH3(CH2)14(C═O)-Aeea-Aeea-Aeea-Dab-Dab] ({Palmitoyl-AEEA-AEEA-AEEA}-[Dab]-[Dab]-OH; C-terminus assumed)	> 10	>10	≥10	–
